The subject of assay [1] is transient focal cerebral ischemia induced by Middle Cerebral Artery Occlusion (MCAO). Nature of the assay: Animal cerebral infarct assay: two-hour Middle Cerebral Artery Occlusion (MCAO) with reperfusion. Conditions: intraventricular (i.c.v.), 0.0067 mg/kg to 0.67 mg/kg. The class given is in vivo, rat. From the text: This assay is used to assess the efficacy of the test agents in protecting the brain against necrosis following cerebral ischemia induced in rats. Middle Cerebral Artery Occlusion (MCAO) is a widely used technique to induce transient focal cerebral ischemia in animal models. […] Furthermore, this model accurately represents the involvement of middle cerebral artery (MCA), the most affected vessel in human stroke, and also allows reperfusion as it happens in humans. MCAO by a two-hour occlusion is used to produce the maximum size of cortical infarction without increased mortality at twenty-four hours. Male Wistar rats (Hadan, Ind.) weighing 300-350 g were allowed free access to water and commercial rodent diet under standard laboratory conditions. The room temperature was maintained at 20-23° C. and room illumination was on a 12/12-hour light/dark cycle. The rats were acclimatized to the laboratory environment 5 to 7 days prior to the study. Before surgery, the animals were fasted overnight, but had free access to water. The rats were anesthetized with 3.0% isoflurane (Aerrane, Front Dodge, Iowa) in […] and the animal's neck was shaved and sterilized before the operation. The animals were subjected to two hours MCAO using a modified intraluminal filament technique. A midline incision on the ventral part of the neck was made to expose external and internal carotid arteries. The right external and common carotid arteries were ligated by a suture (silk 5/0, Carlisle Laboratories, Farmers Branch, Tex.) and the right internal artery was temporarily ligated by a microvascular clip (Fine Science Tool Inc., Foster City, Calif.). A small incision was made in the common carotid artery and a nylon filament, its tip rounded by heating, prepared from a fishing line (Stren Fishing Lines, Wilmington, Del.) was inserted from the right common carotid artery. The filament was advanced into the internal carotid artery 18-20 mm from the point of bifurcation of internal and external arteries and a suture was tightly ligated around the filament. Two hours post occlusion, the animals were re-anesthetized to allow reperfusion for the remaining of the experiment by removal of the filament. The anesthetized animal were placed on a stereotaxic apparatus (Harvard Apparatus, S. Natick, Mass.). Anesthesia was maintained by inhalation of 3.0% isoflurane in […] throughout the entire procedure. The scalp was shaved and sterilized prior to surgery. A midline sagittal incision about 3 cm long was made slightly behind the eyes to expose the skull. The skull was scraped with a rounded end spatula to remove periosteal connective tissue. A bur hole was placed 1.5 mm lateral, 1 mm posterior to the left of the bregma to mark the left lateral ventricle. A brain infusion cannula (ALZET CO. Palo Alto, Calif.) was inserted 4 mm deep into the hole. The desired depth was adjusted by attaching spacers to the cannula. The cannula was attached to a 4-cm silastic catheter (Helix Medical Inc.) fixed in place with dental cement (Ketac-cement, Norristown, Pa.). The catheter was either attached to a primed osmotic pump placed subcutaneously between the shoulder blades for permanent infusion or to a syringe for a short infusion. Anesthesia was maintained by inhalation of 3.0% isoflurane in […] throughout the entire procedure. The exterior site of the right femoral vein was shaved and sterilized prior to surgery. A 3 cm incision was made in the right groin region and the femoral vein was isolated. A small incision was made on the femoral vein temporarily ligated with a microvascular clip to introduce and advance a polyethylene (PE-50) catheter (Becton. Dickinson and Co., Sparks, Md.). The catheter was secured in place with suture (silk 5/0, Carlisle Laboratories, Farmers Branch, Tex.). The other end of the catheter was attached to a syringe filled with the heparinized saline for the bolus injection. […]

In assay [2] the test system is myocardial infarction by left coronary artery occlusion. Nature of the assay: Model of myocardial infarction: left coronary ligation (Example 5). The class given is in vivo, rat. Conditions: dose of 0.67 mg/kg. On the procedure:
Male Sprague-Dawley weighing 250-320 g are allowed free access to water and commercial rodent diet under standard laboratory conditions. Room temperature is maintained at 20-23° C. and room illumination is on a 12/12-hour light/dark cycle. Animals are acclimatized to the laboratory environment 5 to 7 days prior to the study and are fasted overnight prior to surgery.
Rats are anaesthetized with Urethane (1.2-1.5 gm/kg). Core body temperature is maintained at 37° C. by using a heating blanket. The surgical area is shaved, and a ventral midline incision is made to expose the trachea and jugular area. A catheter (PE50) is placed in the jugular for administration of compound and maintenance anesthesia. The trachea is incised and a 14-16-gauge modified intravenous catheter is inserted and tied in place as an endotracheal tube. The animal is placed in right lateral recumbency and initially placed on a Harvard ventilator with a tidal volume of 5-10 ml/kg. 100% O2 is delivered to the animals by the ventilator. ECG electrodes are placed to record a standard Lead II ECG. The surgical site is cleaned with alcohol swab, and a skin incision is made over rib cage over the 4th-5th intercostal space. […] The ECG is monitored for S-T changes indicative of ischemia. […] The ECG is monitored for the first 10 minutes of reperfusion. […]

As to bromo-quercetin, the “reductions of infarct volumes” value in assay [1] is given as “greater than 50%”. The infarct size entry in assay [2] is “reduce infarct size”.

Source of the values: patent publication US20020132845A1, “Compositions and methods for the prevention and treatment of tissue ischemia” (priority 2000, published 2002).
